Reference: US8377435B2, “Antibody induced cell membrane wounding” (The Board of Trustees of the Leland Stanford Junior …, priority 2004, dated 2013)
Where “and” joins values, the source holds several entries; their conditions need not be identical. Equal entries are not always repeated.

Experiments:
Format in all cases: cell-based, human
Nalm-6 cells = assay: Cell viability assay using PI staining and forward scatter, Nalm-6; details: for cell viability: caspase inhibitors 10 μM 2 hr at 37° C before treatment with mAb 216; for viability (percent viable cells): jasplakinolide 3 μgs/ml or cytochalasin 5 μgs/ml 2 hr at 37° C
Method: The integrity of the plasma membrane was assessed by the ability of cells to exclude propidium iodide (PI, Sigma, St. Louis, Mo.). The level of PI incorporation was quantitated by flow cytometry on FACScan (Becton-Dickinson, San Jose Calif.) interfaced with VersatermPro and FlowJo software at Stanford's FACS facility. PI-negative cells with normal size as measured by forward scatter signals were considered live cells.
Briefly, cells were treated as specified in each experiment and resuspended in PBS with 3% FCS and 10 μgs/ml of PI. In experiments where toxicity was evaluated in Ca-free medium, cells were resuspended in appropriate media with or without calcium to which 10 μgs/ml PI was added. Since previous studies have shown that mAb 216-mediated toxicity is remarkably […] at lower temperatures (Bhat, N. M., et al. (1996) Clin. Exp. Immunol 105, 183), precautions were taken to keep all media and cells at 37° C. and the centrifuge at room temperature.
Cytochalasin was obtained from Sigma and jasplakinolide was obtained from Molecular Probes (Eugene, Oreg.). Caspase inhibitors, Ac-IETD-CHO and Ac-DEVD-CHO were obtained from PharMingen (San Diego, Calif.). Nalm-6 cells (1×10^6 cells/ml) were treated with jasplakinolide (3 μgs/ml), cytochalasin (5 μgs/ml), or caspase inhibitors (10 μM) for 2 hr at 37° C. before treatment with mAb 216. Control samples with equivalent amounts of DMSO were set in parallel. Cells were then exposed to 25 μg of mAb 216 or control Ab and analyzed by flow cytometry.
Since exocytosis of lysosomes is known to be a calcium dependent phenomenon (Miyake, K., and P. L. McNeil (1995) J. Cell Biol. 131, 1737; Bi, G. Q., et al. (1995) J. Cell Biol. 131, 1747), membrane wounding by mAb 216 and repair of the wound was tested in calcium free and normal calcium conditions. The cell viability of Nalm-6 cells when treated with two VH4-34 encoded mAbs, mAb 216 at 50, 25 and 12.5 ng/ml concentrations, and Y2K at 50 ng/ml, was tested in the presence of media with and without calcium.
Brefeldin-A was obtained from Sigma. Nalm-6 cells (1×10^6 cells/ml) were treated with BFA (25 μg/ml) for 2 hr at 37° C. before treatment with mAb 216. Control samples with equivalent amounts of DMSO were set in parallel. Cells were then exposed to 25 μg of mAb 216 or control Ab and analyzed by flow cytometry.
The in vitro cytotoxicity of mAb 216 to Nalm-6 cells was evaluated using PI staining and viability assessment (percent live cells) as a function of the amount of mAb 216 present. The amount of mAb 216 needed to achieve 50% and 80% viability in Nalm-6 cells with and without a crosslinking agent (a secondary mAb, e.g., anti-human lambda) is shown in Table 1, expressed in nanograms antibody required to achieve the indicated level of cytotoxicity, as determined by PI entry into cells.

SUP B15 = assay: In vitro cytotoxicity of mAb216 in combination with chemotherapeutic agents, SUP B15; details: SUP B15, 48 h
Method: (§1) Three cell lines which have been derived from ALL blasts of different genotype and phenotype, Nalm 6, REH, and SUPB15, were incubated with mAb 216 alone or in combination with vincristine (VCR), for 48 hours at 37° C.
(§2) In vitro cytotoxicity of mAb216 in combination with single chemotherapeutic agents was tested. Three cell lines which have been derived from ALL blasts of different genotype and phenotype, Nalm 6, REH, and SUPB15, were incubated with mAb 216 alone or in combination with vincristine (VCR), daunorubicin (DNR), or L-asparaginase (ASPR).

REH = assay: In vitro cytotoxicity of mAb216 in combination with chemotherapeutic agents, REH; details: 48 h
Method: as §1, §2

Nalm 6 = assay: In vitro cytotoxicity of mAb216 in combination with chemotherapeutic agents, Nalm 6; details: for Live cells: Nalm 6, 48 h
Method: as §1, §2

Ac-IETD-aldehyde
cell viability (Nalm-6 cells): did not alter cell viability

cytochalasin
viability (percent viable cells) (Nalm-6 cells; then control antibodies): did not show a decrease in viability

C/C1=C\[C@H](C)C[C@H](C)OC(=O)C[C@H](c2ccc(O)cc2)NC(=O)[C@@H](Cc2c(Br)[nH]c3ccccc23)N(C)C(=O)[C@H](C)NC(=O)[C@@H](C)C1 [jasplakinolide]
viability (percent viable cells) (Nalm-6 cells; then control antibodies): did not show a decrease in viability

C[C@H]1CCC/C=C/[C@@H]2C[C@H](O)C[C@H]2[C@H](O)/C=C/C(=O)O1 [BFA, Brefeldin A]
viability of cells (Nalm-6 cells; BFA 25 μg/ml 2 hr at 37° C, then control antibodies): no effect on the viability

Ac-DEVD-CHO
cell viability (Nalm-6 cells): did not alter cell viability

CC[C@]1(O)C[C@H]2CN(CCc3c([nH]c4ccccc34)[C@@](C(=O)OC)(c3cc4c(cc3OC)N(C=O)[C@H]3[C@@](O)(C(=O)OC)[C@H](OC(C)=O)[C@]5(CC)C=CCN6CC[C@]43[C@@H]65)C2)C1 [VCR, Vincristine]
Live cells × 10^5 (SUP B15; VCR 2 ng/ml): 2.8 × 10^5
live cell count (REH; VCR 2 ng/ml): 4.2 × 10^5 and 7.7 × 10^5
Live cells (Nalm 6; VCR 0.2 ng/ml): 13 × 10^5
Live cells (Nalm 6; VCR 2 ng/ml): 5 × 10^5
cell death due to treatment with vincristine alone (Nalm 6; vincristine 0.2 ng/ml, 48 hours at 37° C): no cell death occurred

COc1cccc2c1C(=O)c1c(O)c3c(c(O)c1C2=O)C[C@@](O)(C(C)=O)C[C@@H]3O[C@H]1C[C@H](N)[C@H](O)[C@H](C)O1 [DNR, Daunorubicin]
Live cells × 10^5 (SUP B15; DNR 4 ng/ml): 0.44 × 10^5
Live cells (Nalm 6; DNR 5 ng/ml): 4.3 × 10^5

B1: Asparaginase (protein, UniProt P00805 23-348, looked up)
L-asparaginase 2: LPNITILATGGTIAGGGDSATKSNYTVGKVGVENLVNAVPQLKDIANVKGEQVVNIGSQDMNDNVWLTLAKKINTDCDKTDGFVITHGTDTMEETAYFLDLTVKCDKPVVMVGAMRPSTSMSADGPFNLYNAVVTAADKASANRGVLVVMNDTVLDGRDVTKTNTTDVATFKSVNYGPLGYIHNGKIDYQRTPARKHTSDTPFDVSKLNELPKVGIVYNYANASDLPAKALVDAGYDGIVSAGVGNGNLYKSVFDTLATAAKTGTAVVRSSRVPTGATTQDAEVDDAKYGFVASGTLNPQKARVLLQLALTQTKDPQQIQQIFNQY
notes: L-asparaginase, chemotherapeutic enzyme
Live cells × 10^5 (SUP B15; ASPR 0.8 U/ml): 3 × 10^5
live cell count (REH; ASPR 0.8 U/ml): 6.2 × 10^5
Live cells (Nalm 6; ASPR 0.8 U/ml): 9.2 × 10^5
